Data: paper PMC6918269, “Caucasian Gentiana Species: Untargeted LC-MS Metabolic Profiling, Antioxidant and Digestive Enzyme Inhibiting Activity of Six Plants” (Metabolites, 2019)
Values after ≈ are worked out from the molar mass of the structure shown. Where two headings read alike, the source gives them in different places. Marks after values point to notes of the source that are not given here.

Experiments:
[1] = set-up: method as in doi:10.1016/j.indcrop.2015.04.013; conditions: cited from earlier work
[2] = target: T1, α-glucosidase from Saccharomyces cerevisiae (Saccharomyces cerevisiae, UniProt P53341); test: α-glucosidase inhibiting potential, spectrophotometric assay; assay type: biochemical; conditions: (acarbose IC50/sample IC50) × 1000; average ± S.D.; text prints mg acarbose/g
T1 construct: purchased Sigma-Aldrich G5003
T1 sequence (P53341 whole entry): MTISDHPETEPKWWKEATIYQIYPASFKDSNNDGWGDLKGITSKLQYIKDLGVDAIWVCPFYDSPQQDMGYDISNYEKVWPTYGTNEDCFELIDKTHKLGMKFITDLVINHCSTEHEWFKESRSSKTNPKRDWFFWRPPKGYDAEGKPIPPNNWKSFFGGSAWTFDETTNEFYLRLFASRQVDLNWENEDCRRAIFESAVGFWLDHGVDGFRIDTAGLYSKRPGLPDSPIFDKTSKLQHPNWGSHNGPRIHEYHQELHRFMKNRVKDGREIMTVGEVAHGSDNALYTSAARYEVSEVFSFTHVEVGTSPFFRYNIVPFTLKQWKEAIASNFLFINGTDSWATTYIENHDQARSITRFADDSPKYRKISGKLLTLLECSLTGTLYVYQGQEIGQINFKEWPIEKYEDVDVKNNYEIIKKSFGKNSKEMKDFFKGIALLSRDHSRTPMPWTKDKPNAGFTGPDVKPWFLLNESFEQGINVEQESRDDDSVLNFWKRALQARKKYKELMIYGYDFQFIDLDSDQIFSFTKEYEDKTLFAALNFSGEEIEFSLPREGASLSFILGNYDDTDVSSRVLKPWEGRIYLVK
Description: (§1) The α-amylase inhibiting potential and α-glucosidase inhibiting potential were performed using spectrophotometric assays. The α-amylase from Aspergillus oryzae (3 U/mL) and α-glucosidase from Saccharomyces cerevisae (0.5 U/mL) were used as […]. […] Values are expressed as mean obtained from six independent experiments.

[3] = DPPH radical scavenging assay; assay type: biochemical; conditions: for DPPH, 2,2-diphenyl-1-picrylhydrazyl radical scavenging activity: (trolox IC50/sample IC50) × 1000, average ± S.D., text prints mg trolox/g
Description: The 2,2-diphenyl-1-picrylhydrazyl (DPPH) radical scavenging activity was performed as described earlier. […] The IC50 value was found as the effective concentration at which DPPH radicals were scavenged by 50%. The value of antioxidant activity (A^DPPH) against DPPH radicals was found as a ratio of trolox IC50 to sample IC50 [A^DPPH = (IC50^Trolox/ IC50^Sample) × 1000] and expressed as mg of trolox in 1 g of sample. Values are expressed as mean obtained from five independent experiments.

[4] = lipid peroxidation inhibition assay; assay type: biochemical; conditions: for LPA, lipid peroxidation inhibition activity: (caffeic acid IC50/sample IC50) × 1000, average ± S.D., text prints mg caffeic acid/g
Source text: The previously described method was used to investigate the lipid peroxidation inhibition potency. […] The IC50 value was found as the effective sample concentration gave 50% reduction of optical density of initial solution. The value of lipid peroxidation inhibition (I) was found as a ratio of caffeic acid IC50 to sample IC50 [I = (IC50^Caffeic acid/ IC50^Sample) × 1000] and expressed as mg of caffeic acid in 1 g of sample. Values are expressed as mean obtained from five independent experiments.

[5] = superoxide anion radical scavenging assay; assay type: biochemical; conditions: for O2^-, superoxide anion-radical scavenging activity: (quercetin IC50/sample IC50) × 1000, average ± S.D., text prints mg quercetin/g
Source text: The known assay was used to determine superoxide anion radical scavenging activity. […] The IC50 value was found as the effective concentration at which superoxide anion radicals were scavenged by 50%. The value of antioxidant activity (A^O2•) against superoxide anion radicals was found as a ratio of quercetin IC50 to sample IC50 [A^O2• = (IC50^Quercetin/ IC50^Sample) × 1000] and expressed as mg of quercetin in 1 g of sample. Values are expressed as mean obtained from five independent experiments.

[6] = target: T2, α-amylase from Aspergillus oryzae (Aspergillus oryzae, UniProt P0C1B3); test: α-amylase inhibiting potential, spectrophotometric assay; assay type: biochemical; conditions: (acarbose IC50/sample IC50) × 1000, average ± S.D., text prints mg acarbose/g
T2 construct: purchased Sigma-Aldrich 10065
Description: as §1

[7] = HPLC-DAD assay coupled with pre-chromatographic reaction with DPPH radicals; assay type: biochemical; conditions: peak in G. asclepiadea herb extract, HPLC-DAD 210 nm
Description: Scavenging activity against DPPH radicals of gentian herb extracts were medium to high and varied from 147.57 mg trolox/g for G. paradoxa to 580.71 mg trolox/g for G. asclepiadea (Table 3). Extracts of gentian roots were characterized by mostly low activity, with activity values <10 mg trolox/g. […] Figure 9a,b show chromatograms of G. asclepiadea herb extract before and after reaction with DPPH radical. […]. Additional phenolic groups such as 2,3-dihydroxybenzoyl in iridoid structures of gelidoside (rindoside) and trifloroside can increase the radical scavenging potential, but not much (20.82–25.14 mg trolox/g).
Figure 9 HPLC-DAD chromatograms (210 nm) of G. asclepiadea herb extract before (a) and after (b) pre-chromatographic reaction with DPPH radicals and G. gelida roots extract before (c) and after (d) pre-chromatographic reaction with DPPH radicals. Zone of compounds numbered as follows: i—loganic acid; ii—swertiamarin; iii—isoorientin-2″-O-glucoside; iv—gentiopicroside; v—mangiferin; vi—isovitexin-2″-O-glucoside; vii—isoorientin; viii—saponarin; ix—isovitexin; x—luteolin-7-O-glucoside; xi—apigenin-7-O-glucoside; xii—gentiopicroside-6″-O-glucoside; xiii—gelidoside (rindoside); xiv—trifloroside. […] TEXT PRINTED IN THE PICTURE: (b) i: 3% | (b) iii: 72% | (b) iv: 5% | (b) v: 98% | (b) vii: 85% | (b) xi: 11% | (d) iv: 5% | (d) xiii: 8% | (d) xiv: 5% DOUBTS OF THE COPYIST ABOUT THIS PICTURE: The picture prints no measure with the percentages; only the bare % values are copied. / Panel d, 8% (arrow): taken as peak xiii, with 5% taken as xiv; peaks xiii and xiv lie close together, so the assignment is not fully certain. / Panel b, 98% (arrow): taken as peak v, which lies on the shoulder of iv. / The percentages are printed under traces (b) and (d) but compare (a) with (b) and (c) with (d), so the panel choice is uncertain.

[8] = set-up: method as in doi:10.1016/j.indcrop.2015.04.013; conditions: G. cruciata (Serbia) study; cited from earlier work
[9] = cited from earlier work

Row | SMILES | αGIP, α-glycosidase inhibitory potential [2] | DPPH, 2,2-diphenyl-1-picrylhydrazyl radical scavenging activity [3] | LPA, lipid peroxidation inhibition activity [4] | O2^-, superoxide anion-radical scavenging activity [5] | αAIP, α-amylase inhibitory potential [6] | percentage of peak area reduction after pre-chromatographic reaction with DPPH radicals [7] | also measured
1 | Cc1cc(C(C)(C)C)c(O)c(C(C)(C)C)c1 [butylated hydroxytoluene] | – | – | – | – | – | – | IC50, inhibitory activity toward lipid peroxidation [1]: 1.00 µg/mL (≈ 4.54 µM)
2 | C=C[C@@H]1C2=CCOC(=O)C2=CO[C@H]1O[C@@H]1O[C@H](CO)[C@@H](O)[C@H](O)[C@H]1O [Gentiopicroside] | < 10.00 mg of acarbose per g of dry extract weight | < 10.00 mg of trolox per g of dry extract weight | < 10.00 mg of caffeic acid per g of dry extract weight | < 10.00 mg of quercetin per g of dry extract weight | < 10.00 mg of acarbose per g of dry extract weight | 3–5% | DPPH, 2,2-diphenyl-1-picrylhydrazyl radical scavenging activity ([3]; listed as gentiopicroside): < 10 mg of trolox per g of dry extr
3 | O=c1cc(-c2ccc(O)c(O)c2)oc2cc(O)c([C@@H]3O[C@H](CO)[C@@H](O)[C@H](O)[C@H]3O[C@@H]3O[C@H](CO)[C@@H](O)[C@H](O)[C@H]3O)c(O)c12 [isoorientin-2″-O-glucoside, Isoorientin-2″-O-Glc] | – | – | – | – | – | 72–98% | –
4 | Cc1c(C)c2c(c(C)c1O)CCC(C)(C(=O)O)O2 (stereo not drawn) [trolox, reference compound] | – | – | – | – | – | – | IC50, DPPH radicals scavenged by 50% ([3]; positive control): 11.62 ± 0.23 µg/mL (≈ 46.4 µM)
5 | O=C(O)c1cc(O)c(O)c(O)c1 [gallic acid] | – | – | – | – | – | – | superoxide scavenging potential (IC50) [8]: 360 µg/mL
6 | O=C(O)/C=C/c1ccc(O)c(O)c1 [Caffeic acid, caffeic acid, reference compound] | – | – | – | – | – | – | IC50, lipid peroxidation inhibition ([4]; positive control): 58.96 ± 1.14 µg/mL (≈ 327 µM)
7 | O=c1c2cc(O)c(O)cc2oc2cc(O)c([C@@H]3O[C@H](CO)[C@@H](O)[C@H](O)[C@H]3O)c(O)c12 [Mangiferin] | 1562.84 ± 62.48 ^xxxvii mg of acarbose per g of dry extract weight | 3824.20 ± 76.48 ^viii mg of trolox per g of dry extract weight | 522.14 ± 20.85 ^xx mg of caffeic acid per g of dry extract weight | 927.07 ± 18.54 ^xiv mg of quercetin per g of dry extract weight | 296.14 ± 10.36 ^xxiv mg of acarbose per g of dry extract weight | 72–98% | DPPH, 2,2-diphenyl-1-picrylhydrazyl radical scavenging activity ([3]; listed as mangiferin): 3824.20 mg of trolox per g of dry extr; LPA, lipid peroxidation inhibition activity ([4]; listed as mangiferin): 522.14 mg of caffeic acid per g of dr; O2^-, superoxide anion-radical scavenging activity ([5]; listed as mangiferin): 927.07 mg of quercetin per g of dry e
8 | O=c1c(O)c(-c2ccc(O)c(O)c2)oc2cc(O)cc(O)c12 [Quercetin, quercetin, reference compound] | – | – | – | – | – | – | IC50, superoxide anion radicals scavenged by 50% ([5]; positive control): 21.74 ± 0.42 µg/mL (≈ 71.9 µM)
9 | O=C1O[C@H]([C@@H](O)CO)C(O)=C1O [ascorbic acid] | – | – | – | – | – | – | IC50 in the DPPH assay ([9]; Serbian species G. asclepiadea study): 5.23 µg/mL (≈ 29.7 µM); IC50 in the DPPH assay ([9]; Serbian species G. cruciata study): 6.05 µg/mL (≈ 34.4 µM)
10 | C[C@@H]1[C@H]2[C@H](O[C@@H]3O[C@H](CO)[C@@H](O)[C@H](O)[C@H]3O)OC=C(C(=O)O)[C@H]2C[C@@H]1O [Loganic Acid, Loganic acid] | < 10.00 mg of acarbose per g of dry extract weight | < 10.00 mg of trolox per g of dry extract weight | < 10.00 mg of caffeic acid per g of dry extract weight | < 10.00 mg of quercetin per g of dry extract weight | < 10.00 mg of acarbose per g of dry extract weight | 3–5% | DPPH, 2,2-diphenyl-1-picrylhydrazyl radical scavenging activity ([3]; listed as loganic acid): < 10 mg of trolox per g of dry extr
11 | O=c1cc(-c2ccc(O)cc2)oc2cc(O)c([C@@H]3O[C@H](CO)[C@@H](O)[C@H](O)[C@H]3O)c(O)c12 [Isovitexin] | – | 425.11 ± 8.50 ^v mg of trolox per g of dry extract weight | 96.54 ± 3.73 ^xvii mg of caffeic acid per g of dry extract weight | 211.63 ± 4.20 ^xii mg of quercetin per g of dry extract weight | 108.35 ± 3.79 ^xxii mg of acarbose per g of dry extract weight | – | αAIP, α-amylase inhibitory potential ([6]; listed as isovitexin): medium
12 | O=c1cc(-c2ccc(O)c(O)c2)oc2cc(O)c([C@@H]3O[C@H](CO)[C@@H](O)[C@H](O)[C@H]3O)c(O)c12 [Isoorientin, Luteolin-6-C-Glc (isoorientin)] | 811.10 ± 32.44 ^xxxvi mg of acarbose per g of dry extract weight | – | – | – | 1242.03 ± 44.71 ^xxviii mg of acarbose per g of dry extract weight | 72–98% | –
